In the SangsterLogP compilation:

Experiment: method code SF-HPLC, from Marrel, C.; Boss, G.; Van, H.; Testa, B.; Cooper, D.; Jenner, P.; Marsden, C. (1985). L-DOPA esters as potential prodrugs. Part. I. Physicochemical properties. Eur J Med Chem, 20(5)459-465.
Settings: not given

Question: For CC(O)COC(=O)[C@@H](N)Cc1ccc(O)c(O)c1 (stereo not given in full), which logP is on record?
Answer: -0.49

Question: Which logP does the source give for COCC(C)OC(=O)[C@@H](N)Cc1ccc(O)c(O)c1 (stereo not given in full) here?
Answer: 0.08

Question: For N[C@@H](Cc1ccc(O)c(O)c1)C(=O)OCC1CCCCO1 (stereo not given in full), which logP is on record?
Answer: 0.47

Same assay, conditions: pH 7.4

Question: With N[C@@H](Cc1ccc(O)c(O)c1)C(=O)OCCOc1ccccc1 as the compound, how does the logD read?
Answer: 1.35

Question: With N[C@@H](Cc1ccc(O)c(O)c1)C(=O)OC1CCCCC1 as the compound, how does the logD read?
Answer: 1.53

Question: For COc1ccc(CCOC(=O)[C@@H](N)Cc2ccc(O)c(O)c2)cc1, which logD is on record?
Answer: 1.5

Question: Which logD does the source give for CCCOC(=O)[C@@H](N)Cc1ccc(O)c(O)c1 here?
Answer: 0.55

Question: With CCOC(=O)[C@@H](N)Cc1ccc(O)c(O)c1 as the compound, how does the logD read?
Answer: 0.01

Question: Which logD does the source give for N[C@@H](Cc1ccc(O)c(O)c1)C(=O)OCCc1ccc(Cl)cc1 here?
Answer: 2.12

Question: Which logD does the source give for N[C@@H](Cc1ccc(O)c(O)c1)C(=O)OCCc1ccccc1 here?
Answer: 1.57
